Reference: patent US12594276B2, “Inhibitors of human immunodeficiency virus replication” (ViiV Healthcare UK (No.5) Limited, priority 2024, dated 2026)
Where two headings read alike, the source gives them in different places.

Key:
[1] = system: recombinant NL4-3 virus (nef section replaced with Renilla luciferase gene) in MT-2 cells; assay: HIV cell culture assay (antiviral activity, luciferase readout); format: cell-based; details: Renilla, NL43, MT-2 cells infected for 4-5 days with recombinant NL4-3 Renilla luciferase virus
Outline: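 Read-out: Renilla luciferase (live-cell substrate) in infected MT-2 cells after 4-5 d with serial compound dilutions. Virus from 293T transfection of the proviral clone, titered by luciferase in MT-2. EC50 via median effect equation fit.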

[2] = Compound cytotoxicity, XTT-based colorimetric assay; format: cell-based; details: human
Outline: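 Follows the antiviral assay procedure, but with uninfected MT2 cells. On day 4, cell viability is measured by XTT-based colorimetry, giving CC50 values.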

[3] = uninfected MT2 cells, day 4, XTT, read-out: CC50

## Cc1cc(C2(F)CCC(F)(F)CC2)nc2nc([C@H](Cc3cc(F)cc(F)c3)NC(=O)Cn3nc(C(F)F)c4c3C(F)(F)[C@@H]3C[C@H]43)n(-c3ccc(Cl)c4c(NS(C)(=O)=O)nn([C@@H](C)CN5C[C@H](F)C[C@H](F)C5)c34)c(=O)c12 (atropisomer, axis not shown; (P)) [Example 753, N-[(1S)-1-[(3P)-3-{4-chloro-1-[(2S)-1-[(3R,5S)-3,5-difluoropiperidin-1-yl]propan-2-yl]-3-methanesulfonamido-1H-indazol-7-yl}-5-methyl-4-oxo-7-(1,4,4-trifluorocyclohexyl)-3H,4H-pyrido[2,3-d]pyrimidin-2-yl]-2-(3,5-difluorophenyl)ethyl]-2-[(2S,4R)-9-(difluoromethyl)-5,5-difluoro-7,8-diazatricyclo[4.3.0.0^2,^4]nona-1(6),8-dien-7-yl]acetamide]
[1]
  EC50: 0.026 nM
[2]; [3]
  CC50 at 4 days: > 20 nM

## COCCCn1nc(NS(C)(=O)=O)c2c(Cl)ccc(-n3c([C@H](Cc4cc(F)cc(F)c4)NC(=O)Cn4nc(C(F)F)c5c4C(F)(F)[C@@H]4C[C@H]54)nc4nc(C5CCC(F)(F)CC5)cc(NCC5CCOCC5)c4c3=O)c21 (atropisomer, axis not shown; (P)) [Example 431, N-[(1S)-1-[(3P)-3-[4-chloro-3-methanesulfonamido-1-(3-methoxypropyl)-1H-indazol-7-yl]-7-(4,4-difluorocyclohexyl)-5-{[(oxan-4-yl)methyl]amino}-4-oxo-3H,4H-pyrido[2,3-d]pyrimidin-2-yl]-2-(3,5-difluorophenyl)ethyl]-2-[(2S,4R)-9-(difluoromethyl)-5,5-difluoro-7,8-diazatricyclo[4.3.0.0^2,^4]nona-1(6),8-dien-7-yl]acetamide]
[1]
  EC50: 0.01 nM
[2]; [3]
  CC50 at 4 days: > 20 nM

## Cc1cc(C2(F)CCC(F)(F)CC2)nc2nc([C@H](Cc3cc(F)cc(F)c3)NC(=O)Cn3nc(C(F)F)c4c3C(F)(F)[C@@H]3C[C@H]43)n(-c3ccc(Cl)c4c(NS(C)(=O)=O)nn(CCc5cccnc5)c34)c(=O)c12 (atropisomer, axis not shown; (P)) [Example 740, N-[(1S)-1-[(3P)-3-{4-chloro-3-methanesulfonamido-1-[2-(pyridin-3-yl)ethyl]-1H-indazol-7-yl}-5-methyl-4-oxo-7-(1,4,4-trifluorocyclohexyl)-3H,4H-pyrido[2,3-d]pyrimidin-2-yl]-2-(3,5-difluorophenyl)ethyl]-2-[(2S,4R)-9-(difluoromethyl)-5,5-difluoro-7,8-diazatricyclo[4.3.0.0^2,^4]nona-1(6),8-dien-7-yl]acetamide]
[1]
  EC50: 0.021 nM
[2]; [3]
  CC50 at 4 days: > 20 nM

## COCCCn1nc(NS(C)(=O)=O)c2c(Cl)ccc(-n3c([C@H](Cc4cc(F)cc(F)c4)NC(=O)Cn4nc(C(F)F)c5c4C(F)(F)[C@@H]4C[C@H]54)nc4nc(C5CCC(F)(F)CC5)cc(NCCC5CCOCC5)c4c3=O)c21 (atropisomer, axis not shown; (P)) [Example 550, N-[(1S)-1-[(3P)-3-[4-chloro-3-methanesulfonamido-1-(3-methoxypropyl)-1H-indazol-7-yl]-7-(4,4-difluorocyclohexyl)-5-{[2-(oxan-4-yl)ethyl]amino}-4-oxo-3H,4H-pyrido[2,3-d]pyrimidin-2-yl]-2-(3,5-difluorophenyl)ethyl]-2-[(2S,4R)-9-(difluoromethyl)-5,5-difluoro-7,8-diazatricyclo[4.3.0.0^2,^4]nona-1(6),8-dien-7-yl]acetamide]
[1]
  EC50: 0.012 nM
[2]; [3]
  CC50 at 4 days: > 20 nM

## Cc1cc(C2CCC(F)(F)CC2)nc2nc([C@H](Cc3cc(F)cc(F)c3)NC(=O)Cn3nc(C(F)F)c4c3C(F)(F)[C@@H]3C[C@H]43)n(-c3ccc(Cl)c4c(NS(C)(=O)=O)nn(CCN5C[C@@H](F)[C@@H](F)C5)c34)c(=O)c12 (atropisomer, axis not shown; (P)) [Example 267, N-[(1S)-1-[(3P)-3-(4-chloro-1-{2-[(3R,4S)-3,4-difluoropyrrolidin-1-yl]ethyl}-3-methanesulfonamido-1H-indazol-7-yl)-7-(4,4-difluorocyclohexyl)-5-methyl-4-oxo-3H,4H-pyrido[2,3-d]pyrimidin-2-yl]-2-(3,5-difluorophenyl)ethyl]-2-[(2S,4R)-9-(difluoromethyl)-5,5-difluoro-7,8-diazatricyclo[4.3.0.0^2,^4]nona-1(6),8-dien-7-yl]acetamide]
[1]
  EC50: 0.015 nM
[2]; [3]
  CC50 at 4 days: > 50 nM

## Cc1cc(C2CCC(F)(F)CC2)nc2nc([C@H](Cc3cc(F)cc(F)c3)NC(=O)Cn3nc(C4CC4)c4c3C[C@@H]3C[C@H]43)n(-c3ccc(Cl)c4c(NS(C)(=O)=O)nn(CCN5[C@@H]6CC[C@H]5CC(F)(F)C6)c34)c(=O)c12 (atropisomer, axis not shown; (P)) [Example 245]
[1]
  EC50: 0.019 nM
[2]
  CC50 at 4 days: > 50 nM

## Cc1cc(C2CCC(F)(F)CC2)nc2nc([C@H](Cc3cc(F)cc(F)c3)NC(=O)Cn3nc(C4CC4)c4c3C[C@@H]3C[C@H]43)n(-c3ccc(Cl)c4c(NS(C)(=O)=O)nn(CCN5CC(F)(F)C5)c34)c(=O)c12 (atropisomer, axis not shown; (P)) [Example 283, N-[(1S)-1-[(3P)-3-{4-chloro-1-[2-(3,3-difluoroazetidin-1-yl)ethyl]-3-methanesulfonamido-1H-indazol-7-yl}-7-(4,4-difluorocyclohexyl)-5-methyl-4-oxo-3H,4H-pyrido[2,3-d]pyrimidin-2-yl]-2-(3,5-difluorophenyl)ethyl]-2-[(2S,4S)-9-cyclopropyl-7,8-diazatricyclo[4.3.0.0^2,^4]nona-1(6),8-dien-7-yl]acetamide]
[1]
  EC50: 0.008 nM
[2]; [3]
  CC50 at 4 days: > 50 nM

## Cc1cc(C2(F)CCC(F)(F)CC2)nc2nc([C@H](Cc3cc(F)cc(F)c3)NC(=O)Cn3nc(C4CC4)c4c3C[C@@H]3C[C@H]43)n(-c3ccc(Cl)c4c(NS(C)(=O)=O)nn([C@H](C)C(=O)N5CC(C)(C)OC(C)(C)C5)c34)c(=O)c12 (relative stereo) [Example 750, N-[(1S)-1-[(3P)-3-{4-chloro-3-methanesulfonamido-1-[(2R)-1-oxo-1-(2,2,6,6-tetramethylmorpholin-4-yl)propan-2-yl]-1H-indazol-7-yl}-5-methyl-4-oxo-7-(1,4,4-trifluorocyclohexyl)-3H,4H-pyrido[2,3-d]pyrimidin-2-yl]-2-(3,5-difluorophenyl)ethyl]-2-[(2R*,4R*)-9-cyclopropyl-7,8-diazatricyclo[4.3.0.0^2,^4]nona-1(6),8-dien-7-yl]acetamide]
[1]
  EC50: 0.028 nM
[2]; [3]
  CC50 at 4 days: > 20 nM

## Cc1cc(C2CCC(F)(F)CC2)nc2nc([C@H](Cc3cc(F)cc(F)c3)NC(=O)Cn3nc(C(F)(F)F)c4c3C[C@@H]3C[C@H]43)n(-c3ccc(Cl)c4c(NS(C)(=O)=O)nn(CCN5CCOCC5)c34)c(=O)c12 (atropisomer, axis not shown; (P)) [Example 115, N-[(1S)-1-[(3P)-3-{4-chloro-3-methanesulfonamido-1-[2-(morpholin-4-yl)ethyl]-1H-indazol-7-yl}-7-(4,4-difluorocyclohexyl)-5-methyl-4-oxo-3H,4H-pyrido[2,3-d]pyrimidin-2-yl]-2-(3,5-difluorophenyl)ethyl]-2-[(2S,4S)-9-(trifluoromethyl)-7,8-diazatricyclo[4.3.0.0^2,^4]nona-1(6),8-dien-7-yl]acetamide]
[1]
  EC50: 0.016 nM
[2]; [3]
  CC50 at 4 days: > 50 nM

## COCCCn1nc(NS(C)(=O)=O)c2c(Cl)ccc(-n3c([C@H](Cc4cc(F)cc(F)c4)NC(=O)Cn4nc(C(F)F)c5c4C(F)(F)[C@@H]4C[C@H]54)nc4nc(C5CCC(F)(F)CC5)cc(NCCc5ccn(C)n5)c4c3=O)c21 (atropisomer, axis not shown; (P)) [Example 543, N-[(1S)-1-[(3P)-3-[4-chloro-3-methanesulfonamido-1-(3-methoxypropyl)-1H-indazol-7-yl]-7-(4,4-difluorocyclohexyl)-5-{[2-(1-methyl-1H-pyrazol-3-yl)ethyl]amino}-4-oxo-3H,4H-pyrido[2,3-d]pyrimidin-2-yl]-2-(3,5-difluorophenyl)ethyl]-2-[(2S,4R)-9-(difluoromethyl)-5,5-difluoro-7,8-diazatricyclo[4.3.0.0^2,^4]nona-1(6),8-dien-7-yl]acetamide]
[1]
  EC50: 0.014 nM
[2]; [3]
  CC50 at 4 days: > 20 nM

## COCCCn1nc(NS(C)(=O)=O)c2c(Cl)ccc(-n3c([C@H](Cc4cc(F)cc(F)c4)NC(=O)Cn4nc(C(F)F)c5c4C(F)(F)[C@@H]4C[C@H]54)nc4nc(C5CCC(F)(F)CC5)cc(NCCN5CCN(C)CC5)c4c3=O)c21 (atropisomer, axis not shown; (P)) [Example 535, N-[(1S)-1-[(3P)-3-[4-chloro-3-methanesulfonamido-1-(3-methoxypropyl)-1H-indazol-7-yl]-7-(4,4-difluorocyclohexyl)-5-{[2-(4-methylpiperazin-1-yl)ethyl]amino}-4-oxo-3H,4H-pyrido[2,3-d]pyrimidin-2-yl]-2-(3,5-difluorophenyl)ethyl]-2-[(2S,4R)-9-(difluoromethyl)-5,5-difluoro-7,8-diazatricyclo[4.3.0.0^2,^4]nona-1(6),8-dien-7-yl]acetamide]
[1]
  EC50: 0.057 nM
[2]; [3]
  CC50 at 4 days: > 20 nM

## Cc1cc(C2CCC(F)(F)CC2)nc2nc([C@H](Cc3cc(F)cc(F)c3)NC(=O)Cn3nc(C(F)F)c4c3C(F)(F)[C@@H]3C[C@H]43)n(-c3ccc(Cl)c4c(NS(C)(=O)=O)nn(CCN5CCC(F)(F)CC5)c34)c(=O)c12 (atropisomer, axis not shown; (P)) [Example 128, N-[(1S)-1-[(3P)-3-{4-chloro-1-[2-(4,4-difluoropiperidin-1-yl)ethyl]-3-methanesulfonamido-1H-indazol-7-yl}-7-(4,4-difluorocyclohexyl)-5-methyl-4-oxo-3H,4H-pyrido[2,3-d]pyrimidin-2-yl]-2-(3,5-difluorophenyl)ethyl]-2-[(2S,4R)-9-(difluoromethyl)-5,5-difluoro-7,8-diazatricyclo[4.3.0.0^2,^4]nona-1(6),8-dien-7-yl]acetamide]
[1]
  EC50: 0.013 nM
[2]; [3]
  CC50 at 4 days: > 50 nM
